Literature values, collected in patent publication US20230313389A1, “APPARATUS AND METHOD FOR THE ELECTROLYTIC PRODUCTION OF HYPOCHLOROUS ACID” (GROUPE OXWELL INC., priority 2020, published 2023).

Assays:
[1] = as disinfectant
[2] = under ideal conditions
[3] = system: viruses, including coronaviruses; settings: variety of viruses

OCl [HOCl, Hypochlorous acid]
effectiveness relative to chlorine in the form of ClO- [1]: 100 times
shelf life (time HOCl is effective) [2]: up to 2 weeks
time to inactivate viruses [3]: less than 1 minute
